PMC9106491, “In Vitro Antioxidant, Anti-Inflammatory, and Digestive Enzymes Inhibition Activities of Hydro-Ethanolic Leaf and Bark Extracts of Psychotria densinervia (K. Krause) Verdc” (Advances in Pharmacological and Pharmaceutical Sciences, 2022)
“And” between values parts separate entries of the source, which are not always exact repeats. Equal values may be shown once. Each block holds one compound with its values, some of them ahead of it.

How the values were obtained:
[1] = DPPH free radical scavenging; details: 30 mins, 517 nm
Protocol: The DPPH scavenging assay was conducted by the method of Sanchez-Moreno et al. with some modifications. DPPH (0.1 mM) stock solution was diluted in methanol, and the absorbance was adjusted to 1.5 at 517 nm wavelength. […] extracts (500 μl) at different concentrations (15.62, 31.25, 62.5, and 250 μg/ml) were mixed with 2000 μl of DPPH solution and read with the aid of a spectrophotometer at 517 nm after 30 mins of incubation in the dark.

ABTS radical scavenging = details: 15 mins, 734 nm
Protocol: ABTS scavenging activity was evaluated by the discoloration of the cationic radical ABTS^∗^+, as per the technique described by Arnao et al. with some modifications. Briefly, the ABTS reagent was obtained by mixing an ethanolic solution of ABTS (7.4 mM) and an aqueous solution of potassium persulfate (2.6 mM). After mixing, the solution was incubated in the dark for 24 hours. The ABTS solution obtained was diluted until an absorbance of 1.5 was obtained at 734 nm. Two hundred microliters of each extract or catechin at different concentrations (15.62, 31.25, 62.5, and 250 μg/ml) was added to 1800 μl of the ABTS solution prepared above. The mixture was incubated in the dark for 15 mins, and the absorbance was read with a spectrophotometer at 734 nm against the blank. Catechin was used as the standard. […] The IC50 was calculated as in DPPH.

[2] = target: T1, porcine pancreatic lipase (Sus scrofa, UniProt P00591); assay: Pancreatic lipase inhibition; assay type: biochemical; details: read-out: inhibition percentage of lipase
T1 construct: purchased Sigma-Alrich Chemical Co
T1 sequence (P00591 1-450): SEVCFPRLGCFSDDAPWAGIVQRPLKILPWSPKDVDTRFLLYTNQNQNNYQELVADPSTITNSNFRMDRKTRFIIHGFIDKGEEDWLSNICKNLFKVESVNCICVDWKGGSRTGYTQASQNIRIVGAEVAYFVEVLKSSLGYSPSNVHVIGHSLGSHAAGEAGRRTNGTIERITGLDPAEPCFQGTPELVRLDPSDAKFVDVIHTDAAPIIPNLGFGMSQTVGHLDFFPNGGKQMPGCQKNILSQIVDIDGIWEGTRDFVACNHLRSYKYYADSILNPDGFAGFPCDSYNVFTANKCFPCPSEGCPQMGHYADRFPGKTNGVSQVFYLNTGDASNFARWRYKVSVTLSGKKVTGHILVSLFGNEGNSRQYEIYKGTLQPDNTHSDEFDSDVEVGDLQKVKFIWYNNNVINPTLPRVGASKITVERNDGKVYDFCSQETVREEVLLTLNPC
Protocol: The method described by Kim et al. was used in this assay. […] The mixture was then incubated at 37°C for 37 mins. The reaction was started by the addition of 10 μl of p-nitrophenyl butyrate substrate (10 mM p-NPB) in dimethylformamide.

[3] = target: T2, pancreatic cholesterol esterase (Sus scrofa, UniProt A0A286ZKB1); details: read-out: Cholesterol esterase IC50; p-NPB substrate
T2 sequence (A0A286ZKB1 95-682): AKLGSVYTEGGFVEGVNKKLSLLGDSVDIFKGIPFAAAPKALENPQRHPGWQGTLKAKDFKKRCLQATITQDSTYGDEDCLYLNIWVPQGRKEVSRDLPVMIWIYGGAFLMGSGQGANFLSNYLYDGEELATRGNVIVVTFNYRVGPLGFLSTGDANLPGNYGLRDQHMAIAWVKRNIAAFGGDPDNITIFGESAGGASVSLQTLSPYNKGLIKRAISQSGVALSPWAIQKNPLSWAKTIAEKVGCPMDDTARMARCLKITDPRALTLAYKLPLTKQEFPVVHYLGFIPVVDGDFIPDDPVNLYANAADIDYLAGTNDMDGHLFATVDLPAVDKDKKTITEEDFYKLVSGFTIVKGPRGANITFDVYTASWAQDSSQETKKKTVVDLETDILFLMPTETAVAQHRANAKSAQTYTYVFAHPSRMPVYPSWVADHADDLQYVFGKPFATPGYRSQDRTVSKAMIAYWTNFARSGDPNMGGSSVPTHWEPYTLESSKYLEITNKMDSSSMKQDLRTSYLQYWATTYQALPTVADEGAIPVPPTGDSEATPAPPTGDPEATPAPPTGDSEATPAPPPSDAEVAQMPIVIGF
Protocol: Briefly, 50 μl of the extracts at different concentrations (3.12, 6.25, 12.5, 25, 50, 100, and 200 μg/ml) was added to 50 μl of 5.16 mM taurocholic acid and 50 μl of an aqueous solution of cholesterol esterase and incubated for 10 mins at 25°C. Then, 50 μl of p-nitrophenyl butyrate substrate (0.2 mM) was added to the mixture and incubated for 5 mins at 25°C. Cholesterol esterase inhibitory activity was determined by measuring the hydrolysis of p-NPB to p-nitrophenol at 405 nm using an ELISA microplate reader (BK-EL10 C).
Anticholesterol esterase activity is given as IC50 values (the concentrations that inhibited 50% of the hydrolysis of pNPB to p-nitrophenol).

SMILES: O=C1O[C@H]([C@@H](O)CO)C(O)=C1O [ascorbic acid]
DPPH IC50 [1]: 71.78 ± 6.37 µg/mL and 71.98 ± 1.21 µg/mL

ABTS IC50 (ABTS radical scavenging): 33.48 ± 2.02 µg/mL
SMILES: O.Oc1cc(O)c2c(c1)O[C@H](c1ccc(O)c(O)c1)[C@@H](O)C2 [catechin]

SMILES: CCCCCCCCCCC[C@@H](C[C@@H]1OC(=O)[C@H]1CCCCCC)OC(=O)[C@H](CC(C)C)NC=O [orlistat]
inhibition at 200 µg/mL [2]: 97.83 ± 0.34%
IC50 [3]: 110 µM
